Test results published in patent publication US20230381157A1, “RIFABUTIN FOR THE TREATMENT OF ACINETOBACTER BAUMANNII” (University of Southern California, priority 2018, published 2023).
Read-outs that look alike come from different tables or passages of the source.

What was measured:
[1] = system: A. baumannii ATCC 17978; test: IC50 dose response, inhibition of bacterial growth (BacTiter-Glo viability); format: cell-based, Acinetobacter baumannii; conditions: 11-point dose response, read-out: IC50
[2] = system: A. baumannii HUMC1; test: as above; format: cell-based, Acinetobacter baumannii; conditions: 11-point dose response, read-out: IC50
[3] = system: HEK293T; test: Specificity: mammalian cell cytotoxicity / inhibition of bacteria growth (CC50/IC50)
[4] = system: A. baumannii HUMC1; test: MIC, broth microdilution in MHII, RPMI or modified media; format: cell-based, Acinetobacter baumannii; conditions: Acinetobacter baumannii, HUMC1, HUMC1; inhibitor alone; read-out: MIC of efflux pump inhibitor alone
[5] = IC50 vs A. baumannii ATCC 17978, RPMI + 50% serum
[6] = IC50 vs A. baumannii ATCC 17978, RPMI alone
[7] = IC50 vs A. baumannii HUMC1, RPMI + 50% serum
[8] = IC50 vs A. baumannii HUMC1, RPMI alone
[9] = Acinetobacter baumannii, ATCC17978, 24 h, ATCC 17978, RPMI + 50% Serum
[10] = Acinetobacter baumannii, ATCC17978, ATCC 17978, RPMI + 50% Serum
[11] = Acinetobacter baumannii, ATCC17978, ATCC 17978, RPMI
[12] = Acinetobacter baumannii, HUMC1, 24 h, HUMC1, RPMI + 50% Serum
[13] = Acinetobacter baumannii, HUMC1, HUMC1, RPMI + 50% Serum
[14] = Acinetobacter baumannii, HUMC1, HUMC1, RPMI

Work on `CO[C@H]1/C=C/O[C@@]2(C)Oc3c(C)c([O-])c4c(O)c(cc(O)c4c3C2=O)NC(=O)/C(C)=C\C=C\[C@H](C)[C@H](O)[C@@H](C)[C@@H](O)[C@@H](C)[C@H](OC(C)=O)[C@@H]1C.[Na+]` [rifamycin SV] yielded an IC50 ([1]; ATCC 17978, RPMI + 50% Serum) of 50 µM, an IC50 ([1]; ATCC 17978, RPMI) of 45.1 µM and an IC50 ([2]; HUMC1, RPMI + 50% Serum) of 50 µM. For the same molecule, the IC50 ([2]; HUMC1, RPMI) was 37.1 µM, the “Specificity HEK293T (CC50/IC50)” value [3, 5] was 1.000 and the “Specificity HEK293T (CC50/IC50)” value [3, 6] was 1.108. The “Specificity HEK293T (CC50/IC50)” value [3, 7] was 1.000 and the “Specificity HEK293T (CC50/IC50)” value [3, 8] was 1.348.
With `CO[C@H]1/C=C/O[C@@]2(C)Oc3c(C)c(O)c4c(O)c(cc(O)c4c3C2=O)NC(=O)/C(C)=C\C=C\[C@H](C)[C@H](O)[C@@H](C)[C@@H](O)[C@@H](C)[C@H](OC(C)=O)[C@@H]1C` [rifamycin] the IC50 [1, 9] was 33 µM, the IC50 [1, 10] was 33 µM and the IC50 [1, 11] was 28.4 µM. It also gave an IC50 [2, 12] of 35.4 µM, an IC50 [2, 13] of 35.4 µM and an IC50 [2, 14] of 20.8 µM. For the same molecule, the “Specificity HEK293T (CC50/IC50)” value [3, 5] was 0.412, the “Specificity HEK293T (CC50/IC50)” value [3, 6] was 0.478 and the “Specificity HEK293T (CC50/IC50)” value [3, 7] was 0.383. The “Specificity HEK293T (CC50/IC50)” value [3, 8] was 0.654.
Work on `CO[C@H]1/C=C/O[C@@]2(C)Oc3c(C)c(O)c4c(O)c(c(/C=N/N5CCN(C6CCCC6)CC5)c(O)c4c3C2=O)NC(=O)/C(C)=C\C=C\[C@H](C)[C@H](O)[C@@H](C)[C@@H](O)[C@@H](C)[C@H](OC(C)=O)[C@@H]1C` [rifapentine] yielded an IC50 [1, 9] of 28.1 µM, an IC50 [1, 10] of 28.1 µM and an IC50 [1, 11] of 7.59 µM. The IC50 [2, 12] was 10.9 µM, the IC50 [2, 13] was 10.9 µM and the IC50 [2, 14] was 10 µM. For the same molecule, the “Specificity HEK293T (CC50/IC50)” value [3, 5] was 1.222, the “Specificity HEK293T (CC50/IC50)” value [3, 6] was 4.517 and the “Specificity HEK293T (CC50/IC50)” value [3, 7] was 3.148. For the same molecule, the “Specificity HEK293T (CC50/IC50)” value [3, 8] was 3.413.
Molecule `CO[C@H]1/C=C/O[C@@]2(C)Oc3c(C)c(O)c4c(O)c(c5c(nc6cc(C)ccn65)c4c3C2=O)NC(=O)/C(C)=C\C=C\[C@H](C)[C@H](O)[C@@H](C)[C@@H](O)[C@@H](C)[C@H](OC(C)=O)[C@@H]1C` [rifaximin] has an IC50 [1, 9] of 2.45 µM, an IC50 [1, 10] of 2.45 µM and an IC50 [1, 11] of 1.78 µM. For the same molecule, the IC50 [2, 12] was 1.59 µM, the IC50 [2, 13] was 1.59 µM and the IC50 [2, 14] was 1.53 µM. The “Specificity HEK293T (CC50/IC50)” value [3, 5] was 20.421, the “Specificity HEK293T (CC50/IC50)” value [3, 6] was 28.143 and the “Specificity HEK293T (CC50/IC50)” value [3, 7] was 31.517. For the same molecule, the “Specificity HEK293T (CC50/IC50)” value [3, 8] was 32.776.
For `CSc1ccc2c(c1)N(CCC1CCCCN1C)c1ccccc1S2` (stereo not drawn) [thioridazine], the MIC [4] was 64 mg/L.
